Laboratory results from the SangsterLogP compilation.

Assay: method code SF-AS, from PMID: 6637502
Details: pH 5.0

| Structure (SMILES) | logD |
| --- | --- |
| O=c1c2c(nc3n1CCCCC3)CCCCC2 | 2.18 |
| O=c1c2ccccc2nc2n1CCCCC2 | 1.98 |
| Cc1cnc2n(c1=O)CCCC2 | 0.4 |
| CC1CCCn2c1nc1c(c2=O)CCCC1 (configuration not stated) | 1.76 |
| Cc1cccn2c(=O)c3c(nc12)CCCC3 | 2.44 |
| O=c1c2c(nc3n1CCCCC3)CCC2 | 1.25 |
| O=c1c2c(nc3ccccn13)CCCC2 | 1.63 |
| Cc1ccn2c(=O)c3c(nc2c1)CCC3 | 1.65 |
| O=c1c2c(nc3n1CCC3)CCC2 | 0.22 |
| Cc1ccc2nc3c(c(=O)n2c1)CCC3 | 1.61 |
| Cc1ccn2c(=O)ccnc2c1 | 0.56 |
| Cc1cccn2c(=O)ccnc12 | 0.79 |
| Cc1cnc2n(c1=O)C(C)CCC2 (configuration not stated) | 0.82 |
| Cc1nc2n(c(=O)c1C)CCCC2 | 0.6 |
| CC1CCc2nc3c(c(=O)n2C1)CCCC3 (configuration not stated) | 1.7 |
| Cc1ccn2c(=O)c3c(nc2c1)CCCC3 | 1.86 |
| Cc1ccc2nccc(=O)n2c1 | 0.61 |
| Cc1ccc2nc3c(c(=O)n2c1)CCCC3 | 2.07 |
| Cc1cccc2nc3c(c(=O)n12)CCCC3 | 1.91 |
| CC1CCn2c(nc3c(c2=O)CCCC3)C1 (configuration not stated) | 1.67 |
| Cc1cccc2nc3c(c(=O)n12)CCC3 | 1.77 |
| CC1CCCc2nc3c(c(=O)n21)CCCC3 (configuration not stated) | 1.67 |
